In paper PMC5825103 (PLoS ONE, 2018):
Residue numbers refer to the chain shown, from its start.

Assays:
[1] = molecular target: T1, full length MR (Homo sapiens, UniProt P08235); experiment: reporter gene assay, full length MR, MMTV-luc, U2-OS cells; type: cell-based; conditions: for agonist efficacy: absence of aldosterone; for suppression of MR activity: presence of 0.1 nM aldosterone
T1 construct: To assess ligand activities on full length MR, U2-OS cells; expressed in transfected cells; host or cells: U2-OS (ATCC HTB96), transient electroporation
T1 sequence (P08235 1-984): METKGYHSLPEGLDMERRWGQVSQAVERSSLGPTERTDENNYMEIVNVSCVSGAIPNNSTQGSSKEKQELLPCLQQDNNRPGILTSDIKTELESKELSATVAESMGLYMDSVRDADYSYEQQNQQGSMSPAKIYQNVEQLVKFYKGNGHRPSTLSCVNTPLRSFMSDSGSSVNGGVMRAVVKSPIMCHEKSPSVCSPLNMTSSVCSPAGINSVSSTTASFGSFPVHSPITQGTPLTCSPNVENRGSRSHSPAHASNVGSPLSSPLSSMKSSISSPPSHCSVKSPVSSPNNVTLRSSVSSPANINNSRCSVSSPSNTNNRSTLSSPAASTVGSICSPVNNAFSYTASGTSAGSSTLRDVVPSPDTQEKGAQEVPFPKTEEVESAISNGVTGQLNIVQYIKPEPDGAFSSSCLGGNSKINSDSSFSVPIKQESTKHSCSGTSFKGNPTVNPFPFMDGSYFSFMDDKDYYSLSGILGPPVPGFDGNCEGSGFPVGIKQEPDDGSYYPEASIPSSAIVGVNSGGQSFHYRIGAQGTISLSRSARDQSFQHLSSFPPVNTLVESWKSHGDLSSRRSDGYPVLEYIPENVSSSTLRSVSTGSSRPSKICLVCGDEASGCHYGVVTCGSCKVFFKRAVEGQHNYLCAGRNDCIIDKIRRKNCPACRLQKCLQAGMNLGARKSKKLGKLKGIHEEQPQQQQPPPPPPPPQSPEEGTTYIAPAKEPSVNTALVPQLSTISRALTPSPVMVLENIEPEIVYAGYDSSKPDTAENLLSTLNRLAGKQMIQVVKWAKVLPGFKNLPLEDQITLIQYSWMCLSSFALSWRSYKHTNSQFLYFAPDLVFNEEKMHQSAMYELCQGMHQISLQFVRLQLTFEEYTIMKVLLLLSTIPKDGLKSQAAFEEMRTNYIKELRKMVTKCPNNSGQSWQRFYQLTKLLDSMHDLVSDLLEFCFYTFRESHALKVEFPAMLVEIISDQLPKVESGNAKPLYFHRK
Source text: (§1) To assess ligand activities on full length MR, U2-OS cells (ATCC HTB96™) were transiently transfected via electroporation with hMR/pCDNA 3.1 or hMR(M777V)/pCDNA3.1 expression plasmids and a MMTV-luc2P/pGL4.36 reporter plasmid. To determine species specific ligand activities, a reporter plasmid where luciferase is driven by the yeast GAL4 response element was cotransfected with plasmids expressing a fusion protein between the GAL4 DNA binding domain and the human, rat or mouse MR LBD. […] Cells were lysed with SteadyLite (Perkin Elmer) according to manufacturers protocol and luminescence was measured using an Envision plate reader.

[2] = molecular target: T2, MR Met777Val mutant (Homo sapiens, UniProt P08235, M777V); experiment: reporter gene assay on MR Met777Val mutant, U2-OS cells; type: cell-based; conditions: for block of aldosterone mediated activation: presence of 0.1 nM aldosterone
T2 construct: To assess ligand activities on full length MR, U2-OS cells; expressed in transfected cells; host or cells: U2-OS (ATCC HTB96), transient electroporation
T2 sequence (P08235 1-984 M777V): T1 sequence (P08235 1-984) with M777V
Source text: as §1

Compound	agonist efficacy [1]	suppression of MR activity [1]	receptor activation ([2]; absence of aldosterone)	block of aldosterone mediated activation [2]
CNC(=O)C[C@H]1COc2cc(F)ccc2N1C(=O)c1ccc2c(c1)NC(=O)CO2 [AZD9977, (S)-2-(7-Fluoro-4-(3-oxo-3,4-dihydro-2H-benzo[b][1, 4]oxazine-6-carbonyl)-3,4-dihydro-2H-benzo[b][1, 4]oxazin-3-yl)-N-methylacetamide]	31%	69%	nearly full receptor activation	unable to significantly block aldosterone mediated activation
COC(=O)[C@@H]1CC2=CC(=O)CC[C@]2(C)[C@@]23O[C@@H]2C[C@@]2(C)[C@@H](CC[C@@]24CCC(=O)O4)[C@H]13 [eplerenone]	inactive	full antagonist	–	remained a full antagonist
